# Legend:
# A549 cells [1] = assay: Colony-forming assay with γ-radiation; format: cell-based, human; settings: 1 μM and 2 μM, added 4 h before radiation
# Method: Cells were irradiated at room temperature with 0.5 Gy/min to the desired dose using a Gammacell 40 ^137Cs irradiator. For in vivo experiments, mice were treated using the Small Animal Radiation Research Platform (Wong et al, [2008]). The tumors were irradiated with a circular beam of 1 cm diameter.
# Cells were counted, plated, and allowed to attach overnight. RK-33 at specified doses was added 4 h before radiation was delivered. Colonies were stained and counted approximately 10 days after irradiation. Surviving fraction was calculated by dividing the number of colonies formed by the number of cells plated times the plating efficiency. Curves were fitted with a quadratic polynomial equation. P-values were determined by the extra sum of square F-test.
# [2] = Toxicology in SCID mice (histopathology, blood values); format: in vivo
# Method: Figure 5 Toxicity studies of RK-33 in mice • Following injection of 20 mg/kg of RK-33, twice a week for 7 weeks, extensive histopathological examination was carried out following necropsy. Identical patterns were observed both in the control and in the treated mice (n = 2). Samples were stained with H&E. Scale bar is 50 μm. • Pharmacokinetics of RK-33 in SCID mice at various time intervals. Results are mean ± SD from 5 mice. LC-MS/MS method was used to determine concentration of RK-33 in mouse plasma and tissue. • Liquid chromatography–mass spectrometry (LC-MS/MS) analysis was performed to determine different metabolites of RK-33. • RK-33 and metabolites characterized by LC-MS/MS in human liver microsomes using the scan mode function of the LC-MS/MS. • HAPI cells were treated with RK-33 (10 μM), HA14-1 (25 μM), or DMSO vehicle, followed by oligomycin (oligo, 0.5 μg/ml), FCCP (3 μM), and antimycin A (AA, 1 μM) while oxygen consumption rate (OCR) was measured. Pyruvate (10 mM) was added in combination with FCCP to ensure that substrate supply was not rate-limiting for maximal OCR. Data are mean ± SD from 2 to 3 wells and representative of independent experiments performed with two different HAPI passages. OCR is baseline-normalized to the point prior to drug or vehicle addition. • HAPI microglial cells were incubated for 1 h in glucose-free XF24 assay medium that was supplemented with 2-deoxyglucose (50 mM) and pyruvate (10 mM). RK-33 (10 μM), oligomycin (0.5 μg/ml), or vehicle control was additionally present as indicated. Results are mean ± SD from 12 replicates pooled from experiments using two consecutive passages. Significance was assessed by two-sided, unpaired t-test. TEXT PRINTED IN THE PICTURE: (B) RK-33: t½e (hours): 7.31 ± 1.16 (Organ: plasma); t½e (hours): 6.70 ± 1.17 (Organ: kidney); t½e (hours): 10.01 ± 1.24 (Organ: liver); t½e (hours): 8.92 ± 1.45 (Organ: spleen); t½e (hours): 7.48 ± 1.18 (Organ: breast); t½e (hours): 7.25 ± 1.25 (Organ: lung); t½e (hours): 6.72 ± 1.23 (Organ: brain); t½e (hours): 6.25 ± 1.19 (Organ: muscle) | (C) RK-33: Mouse Microsomes + NADPH: 100% (Inc. Time: 0); Mouse Microsomes - NADPH: 100% (Inc. Time: 0); Human Microsomes + NADPH: 100% (Inc. Time: 0); Human Microsomes - NADPH: 100% (Inc. Time: 0); Mouse Microsomes + NADPH: 11% (Inc. Time: 30); Mouse Microsomes - NADPH: 80% (Inc. Time: 30); Human Microsomes + NADPH: 49% (Inc. Time: 30); Human Microsomes - NADPH: 85% (Inc. Time: 30); Mouse Microsomes + NADPH: 4% (Inc. Time: 60); Mouse Microsomes - NADPH: 69% (Inc. Time: 60); Human Microsomes + NADPH: 35% (Inc. Time: 60); Human Microsomes - NADPH: 73% (Inc. Time: 60) DOUBTS OF THE COPYIST ABOUT THIS PICTURE: Panel C prints no substance label of its own; RK-33 is taken from the other panels of the same picture / Panel C prints no unit for Inc. Time / Panel B, column head: read as t½e (hours), small print; the sign after t may be 1/2 e / Panel D (retention times and [M+H]+ of RK-33 and peaks M1-M3) was left out as LC-MS data
# A549 cells [3] = assay: Cell cycle analysis by flow cytometry; format: cell-based, human; settings: 0, 2, 4, and 6 μM, dose-dependent
# Method: A549 and H1299 cells were plated at 1 × 10^5 cells per well of a 6-well plate. Cell cycle was carried out as previously described (Vesuna et al, [2012]). Briefly, cells were trypsinized 24 h after plating and fixed in 70% ethanol overnight at −20°C. Fixed cells were washed with PBS and resuspended in DNA-staining solution (5 μg/ml propidium iodide, 0.5 mg/ml RNase A) for 1 h at room temperature. Cell cycle acquisition was performed on a FACScan I or FACSCalibur instrument (BD Biosciences, San Jose, CA, USA). Independent experiments were repeated three times. Data were analyzed using FlowJo software (Tree Star Inc., Ashland, OR, USA).
# H1299 cells [4] = assay: Immunoblotting of cell cycle, apoptosis, MAPK and DNA repair proteins; format: cell-based
# Method: Cell lysate was prepared with TB buffer method. For immunoblotting, ~25 μg protein was loaded on 10% SDS–PAGE gels. […] The blots were developed with clarity Western ECL (Bio-Rad, Hercules, CA, USA) and imaged with G:BOX Chemi XR5 (Syngene, Frederick, MD, USA).
# H1299 cells [5] = assay: qRT-PCR of TCF-regulated genes; format: cell-based
# Description: RNA was extracted according to the manufacturer's instructions (Qiagen, Valencia, CA, USA), and cDNA was manufactured using qScript cDNA synthesis kit (Quanta BioSciences, Gaithersburg, MD, USA), followed by qPCR using SYBR green (Quanta BioSciences) on an iCycler5 (Bio-Rad, Hercules, CA, USA). Amplification of 36B4, a housekeeping gene, was used for normalizing gene expression values.
substance,measurement,setting,value
"diimidazo[4,5-d:4′,5′-f]-[1,3]diazepine [RK-33]",sensitization to γ-radiation,A549 cells [1],sensitized A549 cells to γ-radiation
same,toxicity at the dose used,[2]; SCID mice,non-toxic
same,ALP,"[2]; mouse, in vivo",69 ± 5 U/l
same,ALT,"[2]; mouse, in vivo",72 ± 34 U/l
same,AST,"[2]; mouse, in vivo",224 ± 152 U/l
same,Albumin,"[2]; mouse, in vivo",3.05 ± 0.05 g/dL
same,Amylase,"[2]; mouse, in vivo",905 ± 42 U/l
same,BUN,"[2]; mouse, in vivo",22 ± 2.0 mg/dL
same,Calcium,"[2]; mouse, in vivo",9.1 ± 0.2 mg/dL
same,Cholesterol,"[2]; mouse, in vivo",120 ± 1 mg/dL
same,Creatinine,"[2]; mouse, in vivo",0.35 ± 0.05 mg/dL
same,Glucose,"[2]; mouse, in vivo",166 ± 4 mg/dL
same,Hb,"[2]; mouse, in vivo",14.7 ± 0.6 g/dL
same,MCV,"[2]; mouse, in vivo",55.1 ± 1.3 fL
same,RBC,"[2]; mouse, in vivo",10.01 ± 0.77 M/μl
same,Thrombocytes,"[2]; mouse, in vivo",746 ± 185 K/μl
same,Triglycerides,"[2]; mouse, in vivo",215 ± 14 mg/dL
same,WBC,"[2]; mouse, in vivo",5.83 ± 2.61 K/μl
same,cell cycle effect,A549 cells [3],G1 arrest
same,DNA repair proteins ATR and XRCC4,"H1299 cells [4]; 6 μM for 4 h, then 5 Gy",decrease of ATR but not XRCC4
same,phosphorylated ERK2 and ERK1,"H1299 cells [4]; 7.5 μM or 10 μM, 24 h",reduction of phosphorylated ERK2 and ERK1
same,cyclin D1 protein,"H1299 cells [4]; 10 μM, especially evident 2 h after treatment",substantial reduction of cyclin D1
same,reduction of Axin-2 mRNA expression,H1299 cells [5],1.8 fold
same,reduction of Cyclin D1 mRNA expression,H1299 cells [5],2.4 fold

# From paper PMC4492822 (EMBO Molecular Medicine, 2015)
